{
  "source": "patent US20230381154A1",
  "about": "“TREATMENT OF BREAST CANCER USING COMBINATION THERAPIES COMPRISING GDC-9545 AND ABEMACICLIB OR RIBOCICLIB” (Genentech, Inc., priority 2021, published 2023)",
  "key": {"xenograft models": {"test_system": "xenograft models", "experiment": "xenograft models, efficacy", "assay_type": "in vivo", "conditions": "fulvestrant dosed according to a clinically relevant dosing scheme", "text": "(§1) Furthermore, the lower plasma protein binding of GDC-9545 provides higher free concentration of GDC-9545 than fulvestrant."}, "[1]": {"test_system": "ER+ metastatic breast cancer", "conditions": "frontline patients, NCT01602380; cited from earlier work"}, "ESR1-mutant": {"test_system": "ESR1-mutant", "experiment": "in vitro cell and biochemical assays, ESR1-mutant context", "text": "as §1"}, "[2]": {"experiment": "human steady-state total drug exposure, GDC-9545 versus fulvestrant", "assay_type": "in vivo", "conditions": "GDC-9545 30 mg QD versus fulvestrant 500 mg IM monthly", "text": "as §1"}, "wild-type ER": {"biological_target": "T1, wild-type ER (Homo sapiens, UniProt P03372)", "T1 sequence (P03372 1-595)": "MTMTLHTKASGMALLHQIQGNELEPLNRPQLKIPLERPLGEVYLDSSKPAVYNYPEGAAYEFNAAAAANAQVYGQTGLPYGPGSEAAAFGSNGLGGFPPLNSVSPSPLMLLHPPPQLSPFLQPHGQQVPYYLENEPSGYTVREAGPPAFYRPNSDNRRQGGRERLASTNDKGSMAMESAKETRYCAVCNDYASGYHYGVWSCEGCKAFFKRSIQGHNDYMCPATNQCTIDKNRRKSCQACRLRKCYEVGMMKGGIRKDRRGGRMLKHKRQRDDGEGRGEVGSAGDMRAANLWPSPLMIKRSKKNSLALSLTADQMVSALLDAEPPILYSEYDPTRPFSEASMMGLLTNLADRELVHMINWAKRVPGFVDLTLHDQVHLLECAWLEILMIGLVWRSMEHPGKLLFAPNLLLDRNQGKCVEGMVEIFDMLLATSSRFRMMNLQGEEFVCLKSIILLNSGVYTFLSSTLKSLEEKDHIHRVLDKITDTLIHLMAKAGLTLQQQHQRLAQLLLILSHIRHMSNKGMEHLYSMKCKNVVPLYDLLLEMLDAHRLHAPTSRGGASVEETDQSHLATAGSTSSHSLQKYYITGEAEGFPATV", "experiment": "in vitro cell and biochemical assays, wild-type context", "text": "as §1"}, "[3]": {"experiment": "plasma protein binding and free concentration, GDC-9545 versus fulvestrant", "assay_type": "in vitro ADME", "text": "as §1"}, "[4]": {"test_system": "endocrine-resistant tumors", "conditions": "cited from earlier work"}, "CDK4": {"biological_target": "CDK4 (Homo sapiens, UniProt P11802)", "sequence (P11802 whole entry)": "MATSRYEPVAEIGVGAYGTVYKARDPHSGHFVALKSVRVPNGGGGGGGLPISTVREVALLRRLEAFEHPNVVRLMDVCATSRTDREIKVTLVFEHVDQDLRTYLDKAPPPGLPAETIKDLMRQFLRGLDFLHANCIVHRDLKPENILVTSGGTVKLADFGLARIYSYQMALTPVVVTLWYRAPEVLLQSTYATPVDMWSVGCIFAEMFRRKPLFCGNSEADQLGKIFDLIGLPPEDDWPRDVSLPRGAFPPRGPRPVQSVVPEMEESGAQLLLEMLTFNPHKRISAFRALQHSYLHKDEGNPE", "sequence (P24385 whole entry partner)": "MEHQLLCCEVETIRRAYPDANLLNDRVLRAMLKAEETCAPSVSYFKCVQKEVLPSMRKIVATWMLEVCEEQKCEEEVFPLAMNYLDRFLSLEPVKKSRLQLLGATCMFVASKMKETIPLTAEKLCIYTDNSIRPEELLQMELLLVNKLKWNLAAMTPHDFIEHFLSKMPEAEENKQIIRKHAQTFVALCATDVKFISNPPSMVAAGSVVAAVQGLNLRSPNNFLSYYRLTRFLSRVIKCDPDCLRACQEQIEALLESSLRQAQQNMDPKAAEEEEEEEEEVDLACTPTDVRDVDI", "conditions": "cited from earlier work"}},
  "data": [
    {"molecule": "C[C@]12CC[C@@H]3c4ccc(O)cc4C[C@@H](CCCCCCCCC[S+]([O-])CCCC(F)(F)C(F)(F)F)[C@H]3[C@@H]1CC[C@@H]2O", "note": "(stereo partly drawn) [Fulvestrant]", "values": [
      {"measurement": "efficacy in xenograft models compared with GDC-9545", "setting": "xenograft models", "result": "less efficacious"},
      {"measurement": "clinical benefit versus anastrozole", "setting": "[1]", "result": "benefit over anastrozole"}
    ]},
    {"molecule": "C[C@@H]1Cc2c([nH]c3ccccc23)[C@@H](c2c(F)cc(NC3CN(CCCF)C3)cc2F)N1CC(F)(F)CO", "note": "[GDC-9545, 3-((1R,3R)-1-(2,6-difluoro-4-((1-(3-fluoropropyl)azetidin-3-yl)amino)phenyl)-3-methyl-1,3,4,9-tetrahydro-2H-pyrido[3,4-b]indol-2-yl)-2,2-difluoropropan-1-ol]", "values": [
      {"measurement": "potency relative to fulvestrant", "setting": "ESR1-mutant", "result": "up to 10 times"},
      {"measurement": "steady-state total drug exposure relative to fulvestrant", "setting": "[2]", "result": "approximately 10 fold"},
      {"measurement": "potency relative to fulvestrant", "setting": "wild-type ER", "result": "up to 10 times"},
      {"measurement": "free concentration compared with fulvestrant", "setting": "[3]", "result": "higher"},
      {"measurement": "plasma protein binding compared with fulvestrant", "setting": "[3]", "result": "lower"}
    ]},
    {"molecule": "(2-Pyrimidinamine, N-[5-[(4-ethyl-1-piperazinyl)methyl]-2-pyridinyl]-5-fluoro-4-[4-fluoro-2-methyl-1-(1-methylethyl)-1H-benzimidazol-6-yl] [abemaciclib]", "values": [
      {"measurement": "single-agent activity", "setting": "[4]", "result": "single-agent activity"},
      {"measurement": "selectivity CDK4 versus CDK6", "setting": "CDK4", "result": "more selective for CDK4 than CDK6"}
    ]}
  ]
}
